Legend:
[1] = molecular target: H-2K^b monomers (Mus musculus, UniProt P01901); type: binding
[2] = tested on: H-2K^b on RMA/S cells; type: cell-based, murine
[3] = tested on: PPRV-peptide specific CD8+ T cells; design: species or system mouse (WT C57BL/6); conditions: mouse, in vivo
[4] = tested on: peptide specific CD8+ T cells; design: species or system mouse (C57BL/6); conditions: mouse, in vivo

Chain of H-2K^b monomers (P01901 whole entry, looked up): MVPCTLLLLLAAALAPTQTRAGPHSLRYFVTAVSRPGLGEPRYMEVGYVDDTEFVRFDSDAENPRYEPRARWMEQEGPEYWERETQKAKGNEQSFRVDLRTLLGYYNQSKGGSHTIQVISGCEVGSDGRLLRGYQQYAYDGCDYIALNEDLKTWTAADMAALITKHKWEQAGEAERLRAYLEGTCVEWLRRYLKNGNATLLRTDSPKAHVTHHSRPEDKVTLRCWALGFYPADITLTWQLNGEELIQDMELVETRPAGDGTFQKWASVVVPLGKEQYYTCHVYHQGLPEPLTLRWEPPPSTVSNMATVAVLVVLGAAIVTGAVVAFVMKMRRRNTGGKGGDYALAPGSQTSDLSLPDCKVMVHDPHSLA

Row | Sequence | fold change values of H-2K^b monomer stabilization vs control peptide SIINFEKL [1] | stabilization of surface H-2K^b [2] | tetramer positive CD8+ T cells, frequencies and numbers vs control [3] | magnitude of tetramer positive CD8+ T cells [4]
1 | IVVRRTAGV | higher values as compared to other peptides | – | – | –
2 | IGLVRDFGL | higher values as compared to other peptides | greater levels than the other peptides | significantly higher frequencies and numbers | higher
3 | FMYLFLLGV | – | greater levels than the other peptides | not significantly different from the control animals | –
4 | IEHIFESPL | higher values as compared to other peptides | – | – | –
5 | SSITTRSRL | higher values as compared to other peptides | – | – | –
6 | VILDRERLV | higher values as compared to other peptides | – | – | –
7 | FSAGAYPLL | higher values as compared to other peptides | greater levels than the other peptides | significantly higher frequencies and numbers | higher
8 | VAFNILVTL | higher values as compared to other peptides | – | – | –

Source: article PMC8072281 (Frontiers in Immunology, 2021)
